Consider 6 compounds from patent publication US8501722B2, “Methods and compositions for treating bacterial infection” (priority 2009, dated 2013).

In one test the test system is SK(+)GAS (UMAA2616). Put plainly: Survival of human plasminogen transgenic (Tg+) mice infected with GAS. Format: in vivo. The following applies: starting one day after infection; for survival of Tg+ mice compared to DMSO control group: UMAA2616 infection, 575096 5 μg per day, 1S-22207 30 μg per day, intraperitoneally daily for 5 days; for survival rate of Tg+ mice compared to DMSO control group: 6*10^5 CFU SK(+)GAS, 5 μg per mouse intraperitoneally daily for 5 days. The protocol:
To examine the in vivo efficacy of compounds CCGC, CCGE, and CCGF, Tg+ mice were first infected with 6*10^5 CFU SK(+)GAS, then injected with 5 μg of test compound per mouse intraperitoneally daily for 5 days, starting one day after infection. […] In some embodiments, small compound are delivered continuously through an ALZET® Osmotic Pump (DURECT Corporation, Cupertino, Calif.).
Tg+ mice are then used to test the efficacy of compounds in attenuating the virulence of GAS infection. 20 Tg+ mice are infected with 10^5 CFU of SK(+)GAS then injected with the estimated experimental doses of the compounds two hours later. Survival is monitored for 9 days, while a control group of Tg+ mice will be infected with SK(+)GAS injected with DMSO. The comparison of mortalities between the two groups is analyzed as described above in the toxicity test. Treating mice with compound post-infection helps avoid potential side-effects of toxic or growth inhibition of compound on SK(+)GAS at the time of infection. As a result, the effect of compound on mice survival is a more authentic reflection of the efficacy of compound on inhibiting GAS virulence. Possible scenarios include:
This example describes the in vivo efficacy of compound 575096. Human plasminogen transgenic mice (Tg+) were first infected with 10^5″^6 CFUUMAA2616, then injected with 5-30 lag of test compound per mouse intraperitoneally daily for 5 days, starting one day after infection.

The test system of another test is SK(+)GAS. Put plainly: GAS growth by OD600 nm of culture. Format: cell-based, Group A Streptococcus. The note with it: Streptococcus; for activity at 0.1 µg/mL: read-out: GAS Growth (% control), compound conc. 0.1 μg/ml; for activity at 0.3 µg/mL: read-out: GAS Growth (% control), compound conc. 0.3 μg/ml; for activity at 5 µg/mL: read-out: GAS Growth (% control), compound conc. 5 μg/ml; for activity at 10 µg/mL: read-out: GAS Growth (% control), compound conc. 10 μg/ml; for activity at 20 µg/mL: read-out: GAS Growth (% control), compound conc. 20 μg/ml.

The test system of another test is SKKanGAS. Put plainly: Growth-based turbidometric screen, SKKanGAS under kanamycin (kanamycin resistance gene under ska promoter). The following applies: for effect on SKKanGAS and SK-GAS growth: dose response under kanamycin selection, FIG. 11. The format is cell-based, Group A Streptococcus. An excerpt:
A GAS strain was generated to have kanamycin resistance gene under the control of ski promoter to be used to screen for SK inhibitors. A transgenic GAS has been generated in SK(+)GAS host so that kanamycin resistance gene is driven by ska promoter in an extrachromosomal plasmid. The engineered GAS strain (SKKanGAS) was also kanamycin resistant. This kanamycin resistance gene in SK(−)GAS strain is within the omega-Km2 element whose promoter is independent of ska promoter (Khil et al., J. Infect. Dis. 2003; 188:497-505; Ringdahl et al., J. Biol. Chem. 1998; 273:6424-6430). As a result, SK(−)GAS can serve as a control in the screen for SK promoter to weed out compounds that inhibit GAS growth or interfere with kanamycin resistance protein function. […] A cutoff criterion was set to select compounds that can inhibit 50% growth in SKKanGAS while inhibiting less than 10% growth in SK(−)GAS. A total of 95 compounds met this criterion. As a result, these compounds were chosen for dose response assays and pIC50 of growth inhibition of each hit compound was then estimated. […] An example is given as FIG. 10.
Only SKKanGAS is used for screening in the primary screening. Briefly, 30 μl THY medium containing 20 μg/ml kanamycin is first plated into 384-well plates (384 microtiter plate, Corning #3701) and compounds are added into the wells. SKKanGAS strain is grown to OD600 nm=0.8. SKKanGAS is then diluted 12.5 fold into 20 μg/ml kanamycin THY medium. SKKanGAS mixture (10 μl) is added into each well of the 384-well plates. […] The plates are cultured at 37° C. for 16-20 hours. Growth of bacteria in each well is measured by absorbance at 600 nm. Z′>0.5, which is compatible with high throughput screening, has been typically obtained with the 384-well plate format in which 55,000 small compounds have been screened. […] SKKanGAS is a BSL2 level agent and can be stored at −80° C. SKKanGAS can be cultured at 37° C. in THY or Bill medium which is commercially available (Fisher Scientific, Pittsburgh, Pa.).
Once hit compounds have been identified by the primary screening, they are applied to dose response assays with both SKKanGAS and SK(−)GAS stains. SKKanGAS and SK(−)GAS are grown in 20 μg/ml kanamycin with serial dilution of hit compounds (DMSO final concentration=1% in THY medium). Plates are incubated at 37° C. for 15-20 hours in a climate controlled room (humidity 50%). The absorbance is measured at 600 nm. pIC50 of growth inhibition of each hit compound is then determined. Compounds that with at least 10 fold lower IC50 in SKKanGAS than SK(−)GAS strain are identified and subjected to secondary confirmatory assay. As a result, dose response assay identifies and eliminates most nonspecific compounds that may inhibit GAS growth or interfere with kanamycin resistance protein function.

Several values for one entry are separate records, joined by “and”; a condition that tells them apart may be missing. Equal entries are not always repeated. Where two headings read alike, the source gives them in different places.

Experimental for streptokinase (SK): SK− Ecoli and SKCtr1's dose response relationship with these compounds were then examined.
The effects of 10 hit compounds out of the 23 identified were further tested by dose response assays. […] These compounds were tested for inhibition of ska expression by measuring SK activity in supernatants of GAS exposed to the test compound or control vehicle alone (DMSO). SK(+)GAS were cultured with hit compounds at a dose range of 10 nM to 100 μM at 37° C. for 16-20 hours. Supernatants of SK(+)GAS cultures were measured for SK activity using chromogenic substrate 2403 (Diapharma group Inc., West Chester, Ohio), according to the manufacturer's instruction and simultaneously monitored for nonspecific effects on GAS growth by measuring OD600 nm.
The positive compounds identified in dose response assays are subjected to SK assay to identify compounds inhibiting SK expression in SK(+)GAS. Briefly, SK(+)GAS is grown at the presence of hit compounds at a dose range determined by dose response assays within which SK(−) GAS growth is inhibited less than 10% while SKKanGAS growth is inhibited more than 50% under 20 μg/ml kanamycin.

With `C=CCn1c(SCC#N)nc2c(c1=O)C(C)(C)Cc1ccccc1-2` [1S-22207], in the test on SK(+)GAS (UMAA2616), the “survival of Tg+ mice compared to DMSO control group” value was “significant improvement in survival”. The “SK Expression (% control)” value is 103 % control and 108 % control and 97 % control and 95 % control in the test on streptokinase (SK) (compound conc. 0.1 μg/ml); 103 % control and 104 % control and 95 % control and 108 % control with streptokinase (SK) (compound conc. 0.3 μg/ml); 102 % control and 108 % control and 99 % control and 77 % control in the test on streptokinase (SK) (compound conc. 1.0 μg/ml); 62 % control and 46 % control and 83 % control and 47 % control in the test with streptokinase (SK) (compound conc. 3 μg/ml); 64 % control and 49 % control and 80 % control in the test with streptokinase (SK) (compound conc. 5 μg/ml); 39 % control and 38 % control and 29 % control and 33 % control and 34 % control in the test with streptokinase (SK) (compound conc. 10 μg/ml). For the same compound, the “SK Expression (% control)” value is 31 % control and 27 % control with streptokinase (SK) (compound conc. 20 μg/ml); 22 % control and 25 % control and 40 % control in the test with streptokinase (SK) (compound conc. 40 μg/ml). Besides, the activity at 0.1 µg/mL in the test on SK(+)GAS stood at 96%. Also, the activity at 0.3 µg/mL in the test on SK(+)GAS came to 98%. Besides, the activity at 2.5 µg/mL with SK(+)GAS (read-out: GAS Growth (% control), compound conc. 2.5 μg/ml) stood at 100%. For the same compound, in the test with SK(+)GAS, the activity at 5 µg/mL was determined as 98%. For the same compound, in the test on SK(+)GAS, the activity at 10 µg/mL was 96%. The activity at 20 µg/mL with SK(+)GAS was found to be 99%. The activity at 40 µg/mL in the test with SK(+)GAS (read-out: GAS Growth (% control), compound conc. 40 μg/ml) turned out to be 113%. The activity at 70 µg/mL in the test with SK(+)GAS (read-out: GAS Growth (% control), compound conc. 70 μg/ml) worked out at 126%.
On to `COC(=O)c1ccccc1Sc1c(-c2ccccc2)nc2ccccn12` [CCGC], for which, in the test on SK(+)GAS (UMAA2616), the “survival rate of Tg+ mice compared to DMSO control group” value is listed as “No improvement”. Besides, in the test with SKKanGAS, the “effect on SKKanGAS and SK-GAS growth” value is given as “specific inhibition of SKKanGAS growth under kanamycin selection”.
The like results for `C=CCn1c(SCCCC)nc2c(c1=O)C1(CCCCC1)Cc1ccccc1-2` [CCGE] were, in that order, “significant improvement in survival rate” and “specific inhibition of SKKanGAS growth under kanamycin selection”.
For `COc1cc(C=CC(=O)c2cc(C)c(C)cc2C)cc(OC)c1OC` [CCGF], the “survival rate of Tg+ mice compared to DMSO control group” value with SK(+)GAS (UMAA2616) is listed as “trend toward improvement”. Besides, the “effect on SKKanGAS and SK-GAS growth” value in the test with SKKanGAS was “specific inhibition of SKKanGAS growth under kanamycin selection”.
Regarding `C=CCn1c(SCCCC)nc2c(c1=O)C1(CCCCC1)Cc1ccccc1-2` [compound 575096], in the test with SK(+)GAS (UMAA2616), the “survival of Tg+ mice compared to DMSO control group” value is “significant improvement in survival”. Further, the “SK Expression (% control)” value is 77 % control and 83 % control and 95 % control in the test with streptokinase (SK) (compound conc. 0.1 μg/ml); 108 % control and 95 % control and 127 % control in the test with streptokinase (SK) (compound conc. 0.3 μg/ml); 65 % control and 69 % control and 84 % control in the test on streptokinase (SK) (compound conc. 1.0 μg/ml); 61 % control and 62 % control and 69 % control in the test with streptokinase (SK) (compound conc. 3 μg/ml); 50 % control in the test with streptokinase (SK) (compound conc. 5 μg/ml); 68 % control and 51 % control and 69 % control and 76 % control with streptokinase (SK) (compound conc. 40 μg/ml). The “SK Expression (% control)” value was 65 % control and 66 % control and 83 % control in the test on streptokinase (SK) (compound conc. 50 μg/ml); 40 % control and 61 % control in the test with streptokinase (SK) (compound conc. 70 μg/ml). For the same compound, the activity at 0.1 µg/mL with SK(+)GAS came out at 97%. Besides, in the test with SK(+)GAS, the activity at 0.3 µg/mL was 102%. Further, the activity at 1 µg/mL in the test on SK(+)GAS (read-out: GAS Growth (% control), compound conc. 1 μg/ml) is 102%. In addition, the activity at 3 µg/mL with SK(+)GAS (read-out: GAS Growth (% control), compound conc. 3 μg/ml) worked out at 100%. In addition, the activity at 5 µg/mL in the test with SK(+)GAS was found to be 101%. In addition, the activity at 10 µg/mL with SK(+)GAS amounted to 102%. For the same compound, in the test on SK(+)GAS, the activity at 20 µg/mL came to 84%.
As for `CC[C@H]1OC(=O)[C@H](C)[C@@H](O[C@H]2C[C@@](C)(OC)[C@@H](O)[C@H](C)O2)[C@H](C)[C@@H](O[C@@H]2O[C@H](C)C[C@H](N(C)C)[C@H]2O)[C@](C)(O)C[C@@H](C)C(=O)[C@H](C)[C@@H](O)[C@]1(C)O` [erythromycin, reference compound], the “SKKanGAS growth susceptibility to known antibiotics” value with SKKanGAS (preliminary screening with 2,000 known compounds (The Spectrum Collection)) is listed as “susceptible”.
